As a reminder, the EC50 is the concentration needed to bring the measured effect to its halfway point.

“And” between values parts separate entries of the source, which are not always exact repeats. Equal values may be shown once. Read-outs that look alike come from different tables or passages of the source.

In data set [1] the test system is NL-RLuc virus (recombinant HIV NL4-3 with Renilla Luciferase) in MT-2 cells. In words: Inhibition of HIV replication (NL-RLuc virus in MT-2 cells, luciferase readout). It is filed as cell-based, human immunodeficiency virus (HIV). In a few lines: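 NL4-3 carrying Renilla luciferase in place of part of nef, produced in 293T cells, was used to infect MT-2 cells in RPMI 1640/10% FBS with serial compound dilutions. After 5 days, virus growth was read by luciferase. EC50 came from the median effect equation over at least 2 experiments.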

Where [2] appears, read: MT2, 120 h, NL-RLuc virus infecting MT-2 cells, 5 days of incubation, 10% FBS, luciferase quantitation, at least 2 experiments.
The mark [3] stands for this setting: NL-RLuc virus infecting MT-2 cells, 5 days of incubation, 10% FBS, luciferase quantitation, at least 2 experiments, read-out: EC50.

For `CCOC(=O)[C@@H](OC(C)(C)C)c1c(C)nc2cc3nn2c1N1CCC(C)(CC1)OCCCC[C@H](C)Oc1ccc(F)c(F)c1CCC3`, the ring closure, yield after HPLC (from CCOC(=O)[C@@H](OC(C)(C)C)c1c(C)nc2cc(CCCc3c(O)ccc(F)c3F)nn2c1N1CCC(C)(OCCCC[C@@H](C)O)CC1, ether bond, 20-membered ring, PPh3/DEAD, THF, 5.2 mM, 3.0 h, 2 steps) was found to be 23.6%.

With `CCOC(=O)[C@@H](OC(C)(C)C)c1c(C)nc2cc3nn2c1N1CCC(C)(CC1)OCC=CCc1ccccc1C(=O)NC3`, the ring closure, yield after HPLC (from C=CCOC1(C)CCN(c2c([C@H](OC(C)(C)C)C(=O)OCC)c(C)nc3cc(CNC(=O)c4ccccc4CC=C)nn23)CC1, rcm bond, 18-membered ring, Hoveyda-Grubbs II (5 mol%), then NaOH, 1,2-dichloroethane, 4.7 mM, 70.0 °C, 2.0 h, 2 steps) was 71.1%.

Molecule `CCOC(=O)[C@@H](OC(C)(C)C)c1c(C)nc2cc3nn2c1N1CCC(C)(CC1)OCCCC[C@H](C)Oc1cc(F)c(F)cc1CCC3` showed a ring closure, yield after HPLC (from CCOC(=O)[C@@H](OC(C)(C)C)c1c(C)nc2cc(CCCc3cc(F)c(F)cc3O)nn2c1N1CCC(C)(OCCCC[C@@H](C)O)CC1, ether bond, 20-membered ring, PPh3/DEAD, THF, 10.5 mM, 3.0 h, 2 steps) of 19.2%.

Regarding `Cc1nc2cc3nn2c(c1[C@H](OC(C)(C)C)C(=O)O)N1CCC(C)(CC1)OCC=CC[C@H](C)Oc1ccc(F)cc1COC3` [Example 27, (2S)-2-(tert-Butoxy)-2-[(20S)-15-fluoro-4,20,26-trimethyl-11,19,25-trioxa-1,5,7,8-tetraazapentacyclo[24.2.2.1^6,^9.0^2,^7.0^13,^18]hentriaconta-2,4,6(31),8,13,15,17,22-octaen-3-yl]acetic acid], for the setting “from C=CCOC1(C)CCN(c2c([C@H](OC(C)(C)C)C(=O)O)c(C)nc3cc(COCc4cc(F)ccc4O[C@@H](C)CC=C)nn23)CC1, rcm bond, 20-membered ring, Hoveyda-Grubbs II/CuI, DCE, 0.41 mM, 90.0 °C, 3.0 h”, the ring closure, yield after HPLC turned out to be 50.2%. Further, the concentration for a half-maximal effect (EC50) in data set [1] (setting [2]) was found to be 37 nM.

For `CCOC(=O)[C@@H](OC(C)(C)C)c1c(C)nc2cc3nn2c1N1CCC(C)(CC1)OCC=CC[C@H](C)Oc1cc(F)c(F)cc1COC3`, the ring closure, yield after HPLC (from C=CCOC1(C)CCN(c2c([C@H](OC(C)(C)C)C(=O)OCC)c(C)nc3cc(COCc4cc(F)c(F)cc4O[C@@H](C)CC=C)nn23)CC1, rcm bond, 20-membered ring, Hoveyda-Grubbs II/CuI, DCE, 4.25 mM, 90.0 °C, 3.0 h) is 27%.

`CCOC(=O)[C@@H](OC(C)(C)C)c1c(C)nc2cc3nn2c1N1CCC(C)(CC1)OCC=CCOC1(CCCCC1)c1cn(nn1)C3`: the ring closure, yield after HPLC (from C=CCOC1(C)CCN(c2c([C@H](OC(C)(C)C)C(=O)OCC)c(C)nc3cc(Cn4cc(C5(OCC=C)CCCCC5)nn4)nn23)CC1, rcm bond, 19-membered ring, Hoveyda-Grubbs II (5 mol%), then NaOH, 1,2-dichloroethane, 4.3 mM, 70.0 °C, 2.0 h, 2 steps) was 30.6% and 24.1%.

As to `CCOC(=O)[C@@H](OC(C)(C)C)c1c(C)nc2cc3nn2c1N1CCC(C)(CC1)OCC=CCOc1cccc(c1)-c1cn(nn1)C3`, where the note is “from C=CCOc1cccc(-c2cn(Cc3cc4nc(C)c([C@H](OC(C)(C)C)C(=O)OCC)c(N5CCC(C)(OCC=C)CC5)n4n3)nn2)c1, rcm bond, 21-membered ring, Hoveyda-Grubbs II (5 mol%), then H2, Pd/C, then NaOH, 1,2-dichloroethane, 1.8 mM, 70.0 °C, 2.0 h, 3 steps”, the ring closure, yield after HPLC came out at 37.2%.

As to `CCOC(=O)[C@@H](OC(C)(C)C)c1c(C)nc2cc3nn2c1N1CCC(C)(CC1)OCCCC[C@H](C)Oc1c(F)cc(F)cc1CCC3`, the ring closure, yield after HPLC (from CCOC(=O)[C@@H](OC(C)(C)C)c1c(C)nc2cc(CCCc3cc(F)cc(F)c3O)nn2c1N1CCC(C)(OCCCC[C@@H](C)O)CC1, ether bond, 20-membered ring, PPh3/DEAD, THF, 6.4 mM, 3.0 h, 2 steps) is 37.6%.

For the setting “from C=CCOC1(C)CCN(c2c([C@H](OC(C)(C)C)C(=O)OCC)c(C)nc3cc(CNC(=O)C(=O)N(CC=C)Cc4ccc(F)c(C)c4)nn23)CC1, rcm bond, 18-membered ring, Hoveyda-Grubbs II (5 mol%), then NaOH, 1,2-dichloroethane, 4.03 mM, 70.0 °C, 2.0 h, 2 steps”, `CCOC(=O)[C@@H](OC(C)(C)C)c1c(C)nc2cc3nn2c1N1CCC(C)(CC1)OCC=CCN(Cc1ccc(F)c(C)c1)C(=O)C(=O)NC3` returned a ring closure, yield after HPLC of 63.3%.

`CCOC(=O)[C@@H](OC(C)(C)C)c1c(C)nc2cc3nn2c1N1CCC(C)(CC1)OCC=CCOc1ccccc1CC(=O)NC3`: the ring closure, yield after HPLC (from C=CCOc1ccccc1CC(=O)NCc1cc2nc(C)c([C@H](OC(C)(C)C)C(=O)OCC)c(N3CCC(C)(OCC=C)CC3)n2n1, rcm bond, 20-membered ring, Hoveyda-Grubbs II (5 mol%), then NaOH, 1,2-dichloroethane, 8.6 mM, 70.0 °C, 4.0 h, 2 steps) was 11.6% and 31.6%.

On to `Cc1nc2cc3nn2c(c1[C@H](OC(C)(C)C)C(=O)O)N1CCC(C)(CC1)OC/C=C\Cc1ccccc1OC3` [Example 22, (2S)-2-(tert-Butoxy)-2-[(19Z)-4,23-dimethyl-11,22-dioxa-1,5,7,8-tetraazapentacyclo[21.2.2.1^6,^9.1^2,^7.0^12,^17]octacosa-2,4,6(28),8,12(17),13,15,19-octaen-3-yl]acetic acid], for which, in data set [1] (setting [3]), the half-maximal effective concentration (EC50) turned out to be 141 nM.

For the molecule “(2S)-2-(tert-Butoxy)-2-[4,22-dimethyl-15-(propan-2-yl)-16,21-dioxa-1,5,7,8,11,12,13-heptaazapentacyclo[20.2.2.1^6,^9.1^11,^14.0^2,^7]octacosa-2,4,6(28),8,12,14(27),19-heptaen-3-yl]acetic acid [Example 9]”, the 50% effective concentration (EC50) in data set [1] (setting [3]) turned out to be 93 nM.

With `Cc1nc2cc3nn2c(c1[C@H](OC(C)(C)C)C(=O)O)N1CCC(C)(CC1)OCCCc1ccccc1COC3` [Example 23, (2S)-2-(tert-Butoxy)-2-{4,23-dimethyl-11,22-dioxa-1,5,7,8-tetraazapentacyclo[21.2.2.1^6,^9.0^2,^7.0^13,^18]octacosa-2,4,6(28),8,13(18),14,16-heptaen-3-yl}acetic acid], the EC50 in data set [1] (setting [2]) was 11 nM.

With `Cc1nc2cc3nn2c(c1[C@H](OC(C)(C)C)C(=O)O)N1CCC(C)(CC1)OCCCCOc1ccccc1CC(=O)NC3` [Example 17, (2S)-2-(tert-Butoxy)-2-{4,26-dimethyl-12-oxo-20,25-dioxa-1,5,7,8,11-pentaazapentacyclo[24.2.2.1^6,^9.1^2,^7.0^14,^19]hentriaconta-2,4,6(31),8,14(19),15,17-heptaen-3-yl}acetic acid], the EC50 in data set [1] (setting [2]) turned out to be 24 nM.

For `Cc1ccc2c(c1)O[C@@H](C)C/C=C/COC1(C)CCN(CC1)c1c([C@H](OC(C)(C)C)C(=O)O)c(C)nc3cc(nn13)COC2` [Example 37, (2S)-2-(tert-Butoxy)-2-[(20S,22E)-4,16,20,26-tetramethyl-11,19,25-trioxa-1,5,7,8-tetraazapentacyclo[24.2.2.1^6,^9.0^2,^7.0^13,^18]hentriaconta-2,4,6(31),8,13(18),14,16,22-octaen-3-yl]acetic acid], the 50% effective concentration (EC50) in data set [1] (setting [3]) is 4 nM.

As for `Cc1nc2cc3nn2c(c1[C@H](OC(C)(C)C)C(=O)O)N1CCC(C)(CC1)OCCCCCc1ccccc1COC3` [Example 57, (2S)-2-(tert-Butoxy)-2-{4,25-dimethyl-11,24-dioxa-1,5,7,8-tetraazapentacyclo[23.2.2.1^6,^9.0^2,^7.0^13,^18]triaconta-2,4,6(30),8,13(18),14,16-heptaen-3-yl}acetic acid], in data set [1] (setting [2]), the EC50 turned out to be 34 nM.

Turning to `CCCC1CCCCOC2(C)CCN(CC2)c2c([C@H](OC(C)(C)C)C(=O)O)c(C)nc3cc(nn23)COCc2cc(F)ccc2O1` (stereo partly drawn) [Example 49, (2S)-2-(tert-butoxy)-2-{15-fluoro-4,26-dimethyl-20-propyl-11,19,25-trioxa-1,5,7,8-tetraazapentacyclo[24.2.2.1^6,^9.0^2,^7.0^13,^18]hentriaconta-2,4,6(31),8,13(18),14,16-heptaen-3-yl}acetic acid], the EC50 in data set [1] ({}) was found to be 5 nM.

Take `Cc1nc2cc3nn2c(c1[C@H](OC(C)(C)C)C(=O)O)N1CCC(C)(CC1)OCCCc1ccccc1CCC3` [Example 25, (2S)-2-(tert-Butoxy)-2-{4,23-dimethyl-22-oxa-1,5,7,8-tetraazapentacyclo[21.2.2.1^6,^9.0^2,^7.0^13,^18]octacosa-2,4,6(28),8,13(18),14,16-heptaen-3-yl}acetic acid]: the EC50 in data set [1] (setting [2]) came out at 31 nM.

Take `Cc1nc2cc3nn2c(c1[C@H](OC(C)(C)C)C(=O)O)N1CCC(C)(CC1)OCCCC[C@H](C)Oc1cc2ccccc2cc1COC3` [Example 53, (2S)-2-(tert-butoxy)-2-[(24S)-4,24,30-trimethyl-11,23,29-trioxa-1,5,7,8-tetraazahexacyclo[28.2.2.1^6,^9.0^2,^7.0^13,^22.0^15,^20]pentatriaconta-2,4,6(35),8,13,15,17,19,21-nonaen-3-yl]acetic acid]: the EC50 in data set [1] (setting [2]) is 2 nM.

As for `CCCC1CCCCOC2(C)CCN(CC2)c2c([C@H](OC(C)(C)C)C(=O)O)c(C)nc3cc(nn23)COCc2ccc(C)cc2O1` (stereo partly drawn) [Example 44, (2S)-2-(tert-Butoxy)-2-{4,16,26-trimethyl-20-propyl-11,19,25-trioxa-1,5,7,8-tetraazapentacyclo[24.2.2.1^6,^9.0^2,^7.0^13,^18]hentriaconta-2,4,6(31),8,13(18),14,16-heptaen-3-yl}acetic acid], the EC50 in data set [1] ({}) was found to be 5 nM.

`Cc1nc2cc3nn2c(c1[C@H](OC(C)(C)C)C(=O)O)N1CCC(C)(CC1)OCCCC[C@H](C)Oc1ccc(F)cc1COC3` [Example 28, (2S)-2-(tert-Butoxy)-2-[(20S)-15-fluoro-4,20,26-trimethyl-11,19,25-trioxa-1,5,7,8-tetraazapentacyclo[24.2.2.1^6,^9.0^2,^7.0^13,^18]hentriaconta-2,4,6(31),8,13,15,17-heptaen-3-yl]acetic acid]: the EC50 in data set [1] (setting [2]) was found to be 5 nM.

These data come from patent US9273067B2, “Pyrazolopyrimidine macrocycles as inhibitors of human immunodeficiency virus replication” (BRISTOL-MYERS SQUIBB COMPANY, priority 2014, dated 2016).
